Laboratory results published in patent EP0339496A2, “Aminoguanidine derivatives” (ONO PHARMACEUTICAL CO., LTD., priority 1988, dated 1989).

How the values were obtained:
Maillard reaction [1] = experiment: Inhibitory effect on Maillard reaction in vitro (bovine serum albumin + glucose, fluorescence); type: biochemical; conditions: bovine serum albumin 100 mg/ml, glucose 200 mM, 0.5 M phosphate buffer pH 7.38, one week at 37°C, fluorescence ex 360 nm / em 450 nm
Description: In order to evaluate the inhibitory effect on Maillard reaction in vitro, of the compounds in the present invention, the measurement was carried out under conditions described below. Bovine serum albumin (100 mg/ml), glucose (200 mM) and test compound (6 mM, 30 mM in example 2 and 2(a)) were dissolved in 0.5 M phosphatic buffer solution (pH 7.38), and the mixture was incubated for a week at 37°C. After incubation, the incubated medium was diluted 100 times with the same phosphatic buffer solution, and the fluorescence spectrum was measured at the excitation maximum of 360nm and the emission maximum of 450 nm. Inhibition percentage of the test compounds was calculated by the following equation: [table]

[2] = tested on: advanced glycosylation end products in arterial wall connective tissue protein; conditions: administered to diabetic rats; Brownlee et al., Science, 232, 1629 (1986); cited from earlier work
Maillard reaction [3] = conditions: Brownlee et al., Science, 232, 1629 (1986); cited from earlier work
[4] = test compound 30 mM (example 2 and 2(a))

Row | Compound | Inhibitory effect (%) (Maillard reaction [1]; test compound 6 mM) | other results
1 | N=C(N)N(N)CCCc1ccccc1 [2 (b), 1-amino-1-(3-phenylpropyl) guanidine] | 50% | 
2 | N=C(N)N(N)CC1CCCC1 [2 (c), 1-amino-1-cyclopenthylmethyl guanidine] | 56% | 
3 | N=C(N)NN [aminoguanidine] |  | inhibits diabetes-induced accumulation of advanced glycosylation end products in arterial wall connective tissue protein [2]: inhibits; inhibits Maillard reaction in vitro (Maillard reaction [3]): inhibits
4 | N=C(N)N(N)CCc1ccccc1 [Example 2, 1-Amino-1-phenethylguanidine] |  | Inhibitory effect (%) (Maillard reaction [1]; [4]): 71%
5 | CN(C(=N)NN)c1ccccc1.I [1 (o), 1-amino-3-methyl-3-phenyl guanidine hydroiodide] | 54% | 
6 | CN(N)C(=N)NCc1ccccc1.I [1 (r), 1-amino-1-methyl-3-benzylguanidine hydroiodide] | 36% | 
7 | N=C(NN)NCc1cccc2ccccc12 [1 (h), 1-amino-3-(1-naphtylmethyl) guanidine hydroiodide] | 51% | 
8 | I.N=C(NN)NCc1cccc([N+](=O)[O-])c1 [1 (i), 1-amino-3-(3-nitrobenzyl) guanidine hydroiodide] | 57% | 
9 | CCCCN(CCCC)C(=N)NN [1 (g), 1-amino-3,3-n-butylguanidine hydroiodide] | 34% | 
10 | N=C(N)N(N)Cc1ccccc1 [Example 2 (a), 1-amino-1-benzylguanidine] |  | Inhibitory effect (%) (Maillard reaction [1]; [4]): 50%
11 | COc1ccc(CNC(=N)NN)cc1.I [1 (f), 1-amino-3-(4-methoxybenzyl) guanidine hydroiodide] | 54% | 
12 | I.N=C(NN)NCc1ccccc1 [Example 1, 1-amino-3-benzylguanidine hydroiodide] | 63% | 
13 | Cl.N=C(NN)N1CCCC1 [1 (u), 1-pyrrolidinecarbohydrazide imide hydrochloride] | 43% | 
14 | I.N=C(NN)NCc1ccc(F)cc1 [1 (e), 1-amino-3-(4-fluorobenzyl) guanidine hydroiodide] | 43% | 
15 | Cl.N=C(NN)N1CCOCC1 [1 (v), 4-morpholinecarbohydrazide imide hydrochloride] | 36% | 
16 | I.N=C(NN)NCCc1ccccc1 [Example 1 (a), 1-amino-3-phenethylguanidine hydroiodide] | 72% | 
